Test results taken from patent US6723699B1, “Treating disorders by application of insulin-like growth factors and analogs” (Cephalon, Inc., priority 1989, dated 2004).
Where no end group is shown, it is not given here. [ ]: non-standard residue; d: D form. Tyr(3,5-I2) = N[C@@H](Cc1cc(I)c(O)c(I)c1)C(=O)O

Assays:
[1] = tested on: E18 cortical neuronal cultures; experiment: Cortical neuronal cell survival, calcein-AM fluorometric viability assay; type: cell-based, rat; details: for total number of cells surviving relative to control (in words): 100 μM peptide, 4 days, insulin/serum-free media
Description: To determine whether carboxy-terminal linear peptide derivatives of IGFs can promote the survival of cortical neuronal cells, dissociated cultures of embryonic rat cortex were prepared and assayed for the total number of viable cells present after incubation in the presence or absence of peptide. Cortices were dissected from E18 embryonic rats, dissociated by enzymatic digestion or mechanical dissociation and seeded at a density of 6.25×10^4 cells/cm^2 in defined insulin/serum-free media (Bottenstein and Sato, PNAS, 76:514-517, (1979)) in the presence or absence of 100 μM peptide. […] This compound is taken up by all cells but can only be converted to a fluorescent derivative by live cells. The relative fluorescence values obtained reflect the total viable cell number. […] NO: 5) (Example 22), and the amino acid sequence […] To determine the potency of the carboxy terminal peptides we analyzed the ability of peptides to promote cell survival. We measured the total number of surviving cells within cortical neuronal cultures relative to basal control cultures. FIG. 16 illustrates the concentration-response relationship for peptide […] All peptides examined are effective within the micromolar concentration range in the fluorometric viability assay.

cortical neurons = experiment: Survival of neurite bearing cells in cultured rat cortical cells; type: cell-based; details: 24 hours after plating
Description: (§1) The ability of IGF-I and a synthetic derivative of IGF-II (IGF-II(54-67)) to increase the incorporation of [^3H]-leucine and to promote the survival of neurite bearing cells was examined in cultured rat cortical cells (the numbers “54-67” in IGF-II indicate the fragment includes amino acid residues 54-67 of native IGF-II).
(§2) Measurements were performed, using standard techniques known to those skilled in the art, on dissociated cortical cells obtained from day 18-19 embryonic rats. Cells were seeded at 1.5×10^4/cm^2 on poly-1-ornithine-laminin coated plastic tissue culture cells in serum-free N2 medium (Bottenstein et al. Proc. Natl. Acad. Sci. U.S.A. 76: 514-517 (1978)). [^3H]-leucine was added to cells at plating for the incorporation assay. Cultures were terminated 24 hours after plating and measured for either [^3H]-leucine incorporation or for the number of neuritic cells by microscopic examination.

[2] = tested on: E18 rat cortices cultures; experiment: Cortical neurite outgrowth / regeneration; type: cell-based; details: 100 μM peptide, 96 hours
Description: To determine whether carboxy-terminal linear peptides of IGFs could promote cortical neurite regeneration, dissociated preparations of E18 rat cortices were cultured in defined insulin/serum-free media in the presence or absence of 100 μM peptides: IGF-II(54-67) (SEQ ID NO:3), IGF-I(55-70) (SEQ ID NO:4), peptide TYCAPAKSE (SEQ ID NO:1), peptide EPYCAPPAKSE (SEQ ID NO:5), IGF-II(54-67; D-Y) (SEQ ID NO:45) and IGF-II(58-67) (SEQ ID NO:2). The cultures were observed 96 hours after peptide exposure and photomicrographs were taken.

[3] = tested on: brain ornithine decarboxylase; experiment: Induction of brain ornithine decarboxylase after intracerebral injection, 4 day old rats; type: in vivo, rat; details: 6 hours
Description: The in vivo activity of IGF-I, IGF-II or synthetic peptide derivatives of these molecules was tested using a biochemical marker for CNS neurotrophic activity, the induction of brain ornithine decarboxylase. The induction (i.e. increased activity) of ornithine decarboxylase has been reported to be a general marker for the actions of a variety of trophic factors. (Schwartz et al., Dev. Brain Res. 1:403-413 (1981); Kanje et al., Brain Res. 381:24-28 (1986); Russell et al., Life Sci. 19:1297-1306 (1976); MacDonnell et al. Proc. Natl. Acad. Sci. USA 74, 4681-4684 (1977); […] et al. Proc. Natl. Acad. Sci. USA 82, 4365-4368 (1985)). Sprague-Dawley rats, 4 days old, were injected intracerebrally (in the area of the lateral ventricle) with 5 μl of 0.1 M phosphate-buffered saline (PBS) containing IGF-I, IGF-II or a synthetic peptide derivative (1.25-2.5 μg dose, with 6 animals per treatment group). After 6 hours, the brains were removed, and ornithine decarboxylase was assayed essentially as described by Lewis et al., Proc. Natl. Acad. Sci. USA 75:1021-1023 (1978).

[4] = tested on: cultured rat cortical cells; experiment: [3H]-leucine incorporation in cultured rat cortical cells; type: cell-based; details: low density 24 hour mixed cortical cultures
Description: as §1, §2

IGF-I receptor = molecular target: T1, IGF-I receptor (Rattus norvegicus, UniProt P24062); experiment: 125I-[Threonine59]IGF-I displacement (IGF-I receptor competition) assay, rat brain homogenate; type: binding; details: for PERCENT MAX. BOUND: peptide 100 μM
T1 construct: Brain tissue containing the cerebral cortex and cerebellum was dissected from adult Sprague-Dawley rats; from tissue; host or cells: adult Sprague-Dawley rat brain (cerebral cortex and cerebellum), homogenate pellet
Description: Brain tissue containing the cerebral cortex and cerebellum was dissected from adult Sprague-Dawley rats (Hilltop Lab Animals, Inc. Scottsdale, Pa.) and homogenized at low power for 5 minutes in a Brinkmann Polytron homogenizer (Westbury, N.Y.) containing 50 volumes of ice-cold buffer consisting of 10 mM HEPES, 0.5% BSA, 0.0125% NEM, 0.025% bacitracin, and 100 KIU/ml aprotinin, pH 7.6 (Bohannon et al., Endocrinology 119:943-945 (1986). Following homogenization, the tissue was collected after centrifugation at 7800×g for 20 minutes and resuspended in 10 volumes of assay buffer. Tissue (50 μl), 100 μl ^125I-[Threonine^59]IGF-I (20 pM), and 50 μl of buffer or peptides of varying concentration were added to 96-well plates and incubated on ice for 3 hours. After the incubation period, the tissue was collected on Whatman GF/C filters that had been pre-soaked in 0.01% polyethylenimine and washed four times with ice-cold assay buffer using a Brandel cell harvester (Gaithersburg, Md.). The filters were removed and the bound ^125I-[Threonine 59]IGF-I was measured using a Beckman Model 5500B Gamma Counter.

[5] = tested on: 125I-[Threonine59]IGF-I binding to brain tissue sections; experiment: 125I-[Threonine59]IGF-I binding displacement on rat brain tissue sections
Description: Brains were removed intact from adult Sprague-Dawley rats, frozen on powdered dry ice, and cut into 20 μm sections (at the level of the cerebellum and brain stem) which were
thaw-mounted onto gelatin-coated glass microscope slides (Herkenham and Pert, J. Neurosci. 2:1129-1149 (1982)). Using a modification of the method of Bohannon et al. (1986), the tissue sections were covered with 250 μl of HEPES assay buffer (see Example 1) containing 0.01 nM ^125I-[Threonine^59]IGF-I alone or in combination with unlabeled IGF-I, IGF-II, or synthetic peptide fragments thereof. The sections were incubated at 4° C. for 24 hours and then rinsed in three 1-minute changes (200 ml each) of ice-cold HEPES assay buffer. The tissue sections were then wiped off the slides with filter paper, and the tissue-bound radioactivity was measured in a Beckman Model 5500B Gamma Counter.

[6] = type: in vitro ADME
Description: The peptides of Examples 22 and 23 are modified peptides containing the D isomer of tyrosine (D-Y) at position 59 within IGF-II amino acids 54-67 or 58-67. These modifications were made to prevent peptide bond degradation due to enzymatic cleavage amino terminal to position 60 of IGF-II(54-67) and (58-67). Using a non-denaturing HPLC size exclusion chromatography technique the integrity of peptides IGF-II(54-67) and IGF-II(58-67) was analyzed before and after incubation with cells.

T1 sequence (P24062 31-737 limits assumed): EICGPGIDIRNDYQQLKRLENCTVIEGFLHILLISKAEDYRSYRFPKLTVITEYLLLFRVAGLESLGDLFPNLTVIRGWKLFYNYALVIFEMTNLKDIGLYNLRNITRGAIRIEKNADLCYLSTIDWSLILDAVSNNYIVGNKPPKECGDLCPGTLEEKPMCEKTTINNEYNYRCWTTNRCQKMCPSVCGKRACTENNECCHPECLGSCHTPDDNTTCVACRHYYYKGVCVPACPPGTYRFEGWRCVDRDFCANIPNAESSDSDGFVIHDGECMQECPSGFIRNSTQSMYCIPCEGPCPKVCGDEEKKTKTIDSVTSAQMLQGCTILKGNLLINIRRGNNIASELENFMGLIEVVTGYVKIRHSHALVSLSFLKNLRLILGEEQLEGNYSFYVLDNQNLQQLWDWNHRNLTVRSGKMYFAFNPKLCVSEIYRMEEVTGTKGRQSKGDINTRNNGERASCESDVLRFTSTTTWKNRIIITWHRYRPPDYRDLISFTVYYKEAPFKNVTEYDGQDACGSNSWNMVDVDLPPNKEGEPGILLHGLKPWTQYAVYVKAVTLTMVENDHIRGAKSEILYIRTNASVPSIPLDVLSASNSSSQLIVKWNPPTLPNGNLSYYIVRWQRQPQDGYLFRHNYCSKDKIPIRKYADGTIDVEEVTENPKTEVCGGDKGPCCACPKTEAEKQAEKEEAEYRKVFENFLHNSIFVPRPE
T1 sequence (P24062 742-1370 partner limits assumed): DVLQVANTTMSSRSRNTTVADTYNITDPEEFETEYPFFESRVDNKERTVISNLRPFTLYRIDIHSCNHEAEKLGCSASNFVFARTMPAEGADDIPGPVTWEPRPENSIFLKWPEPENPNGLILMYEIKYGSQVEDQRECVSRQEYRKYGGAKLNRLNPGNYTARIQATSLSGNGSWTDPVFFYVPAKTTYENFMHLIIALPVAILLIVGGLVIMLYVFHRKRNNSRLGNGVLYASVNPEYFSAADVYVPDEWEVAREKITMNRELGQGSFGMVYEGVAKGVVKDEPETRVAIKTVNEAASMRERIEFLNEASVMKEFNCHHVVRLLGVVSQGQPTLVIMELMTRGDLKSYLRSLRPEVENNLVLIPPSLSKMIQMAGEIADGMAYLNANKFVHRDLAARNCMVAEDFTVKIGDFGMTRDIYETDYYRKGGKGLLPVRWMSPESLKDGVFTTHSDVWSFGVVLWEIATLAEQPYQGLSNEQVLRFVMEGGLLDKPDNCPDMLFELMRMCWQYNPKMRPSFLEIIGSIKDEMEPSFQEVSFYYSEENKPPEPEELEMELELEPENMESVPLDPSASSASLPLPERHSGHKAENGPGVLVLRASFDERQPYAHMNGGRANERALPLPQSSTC

Row | Substance | total number of cells surviving relative to control (in words) [1] | also measured
1 | ALLEKYCAKPAKSE [ALLEK YCAKP AKSE] | increased the total number of cells surviving | 
2 | ALLET YCATP AKSE (ALLETYCATPAKSE) [IGF-II(54-67)] | increased the total number of cells surviving | survival of cortical neurons (neurite bearing cells) (in words) (cortical neurons): increased the survival of cortical neurons; neurite outgrowth / regeneration (in words) [2]: neurite regenerative responses were observed; brain ornithine decarboxylase activity (in words) [3]: increased brain ornithine decarboxylase activity; [3H]-leucine incorporation (in words) [4]: increased [^3H]-leucine incorporation; PERCENT MAX. BOUND (IGF-I receptor): 94%; displacement of 125I-[Threonine59]IGF-I (in words) (IGF-I receptor; rat brain homogenate): not significantly effective displacers; PERCENT MAX. BOUND ([5]; peptide .025 mM): 132%; PERCENT MAX. BOUND ([5]; peptide .25 mM): 167%
3 | ALLETDYCATPAKSE (ALLET[dY]CATPAKSE) [IGF-II(54-67; D-Y)] | increased the total number of cells surviving | neurite outgrowth / regeneration (in words) [2]: neurite regenerative responses were observed; stability against degradation when incubated with cells (in words) [6]: stabilized against degradation when incubated with cells
4 | APLKP AKSA (APLKPAKSA) [IGF-I(62-70)] |  | PERCENT MAX. BOUND (IGF-I receptor): 83%
5 | APSTCEYKA [APSTC EYKA] | increased the total number of cells surviving | 
6 | CAPAKSE [CAPAK SE] | increased the total number of cells surviving | 
7 | CATPA KSE (CATPAKSE) [IGF-II (60-67)] | increased the total number of cells surviving | 
8 | EALLETYCATPAKSE [EALLE TYCAT PAKSE] | increased the total number of cells surviving | 
9 | EPYCAPPAKSE | increased the total number of cells surviving | neurite outgrowth / regeneration (in words) [2]: neurite regenerative responses were observed
10 | GYGSS SRRAP QT (GYGSSSRRAPQT) [IGF-I(30-41)] |  | PERCENT MAX. BOUND (IGF-I receptor): 94%
11 | LETYC ATP (LETYCATP) [IGF-II (56-63)] | increased the total number of cells surviving | 
12 | RRLEMYCAPLKPAKSA [IGF-I(55-70)] | increased the total number of cells surviving | neurite outgrowth / regeneration (in words) [2]: neurite regenerative responses were observed
13 | TDYCAPAKSE (T[dY]CAPAKSE) | increased the total number of cells surviving | 
14 | TDYCATPAKSE (T[dY]CATPAKSE) [IGF-II(58-67; D-Y)] | increased the total number of cells surviving | 
15 | TPAKS E (TPAKSE) [IGF-II(62-67)] |  | PERCENT MAX. BOUND (IGF-I receptor): 83%
16 | TY(I2)CAP AKSE (T[Tyr(3,5-I2)]CAPAKSE) [iodinated-TYCAPAKSE] | increased the total number of cells surviving | 
17 | TYCAP A (TYCAPA) | increased the total number of cells surviving | 
18 | TYCAPAKSE | increased the total number of cells surviving | neurite outgrowth / regeneration (in words) [2]: neurite regenerative responses were observed; concentration-response of cortical neuronal cell survival (in words) ([1]; relative to basal control cultures): promotes cortical neuronal cell survival in a dose-dependent manner
19 | TYCAT PAK (TYCATPAK) [IGF-II (58-65)] | increased the total number of cells surviving | 
20 | TYCATPAKSE [IGF-II(58-67)] | increased the total number of cells surviving | neurite outgrowth / regeneration (in words) [2]: neurite regenerative responses were observed
21 | YCAPA | increased the total number of cells surviving | 
22 | YCAPAKSE [YCAPA KSE] | increased the total number of cells surviving | 
